Measurements taken from patent US20160272617A1, “SUBSTITUTED PHENYLALANINE DERIVATIVES” (BAYER PHARMA AKTIENGESELLSCHAFT, priority 2013, published 2016).
pIC50: −log10 of the molar value. Structures can show the parent of a compound that is named as a salt.

Columns and labels:
human factor XIa = target: T1, human factor XIa (Homo sapiens, UniProt P03951); assay: Measurement of FXIa inhibition (fluorogenic peptide substrate Boc-Glu(OBzl)-Ala-Arg-AMC); assay type: biochemical; conditions: factor XIa from Kordia, 15 min preincubation, 30 min at 22° C., fluorescence
T1 construct: purchased Kordia
T1 sequence (P03951 388-625 limits assumed): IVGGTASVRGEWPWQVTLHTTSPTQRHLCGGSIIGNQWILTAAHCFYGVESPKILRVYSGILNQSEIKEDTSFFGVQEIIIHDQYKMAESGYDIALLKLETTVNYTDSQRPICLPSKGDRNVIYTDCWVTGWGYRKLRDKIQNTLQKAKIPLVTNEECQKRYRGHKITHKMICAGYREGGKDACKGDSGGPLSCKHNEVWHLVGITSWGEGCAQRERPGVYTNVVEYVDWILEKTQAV
T1 sequence (P03951 19-387 partner limits assumed): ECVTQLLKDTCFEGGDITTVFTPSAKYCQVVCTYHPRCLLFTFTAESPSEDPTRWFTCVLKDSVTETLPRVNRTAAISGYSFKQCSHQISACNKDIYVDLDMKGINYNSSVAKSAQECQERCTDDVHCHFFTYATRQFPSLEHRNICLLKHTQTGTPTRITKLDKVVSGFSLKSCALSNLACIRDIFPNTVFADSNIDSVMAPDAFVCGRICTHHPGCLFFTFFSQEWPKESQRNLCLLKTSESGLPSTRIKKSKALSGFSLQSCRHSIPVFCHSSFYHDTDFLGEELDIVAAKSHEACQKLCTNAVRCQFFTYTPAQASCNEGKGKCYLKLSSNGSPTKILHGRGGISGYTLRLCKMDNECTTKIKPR
Procedure, shortened: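 Released AMC fluorescence (360/460 nm) read after 30 min at 22 °C. The reaction was started with Boc-Glu(OBzl)-Ala-Arg-AMC (10 μM stock) after a 15 min preincubation of the enzyme (0.45 nM stock) with compound (final 50 μM to 0.00013 μM).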

human plasmin = target: T2, human plasmin (Homo sapiens, UniProt P00747); assay: Measurement of plasmin inhibition (fluorogenic peptide substrate MeOSuc-Ala-Phe-Lys-AMC); assay type: biochemical; conditions: plasmin from Kordia, 15 min preincubation, 30 min at 22° C., fluorescence
T2 construct: purchased Kordia
T2 sequence (P00747 581-810 limits assumed): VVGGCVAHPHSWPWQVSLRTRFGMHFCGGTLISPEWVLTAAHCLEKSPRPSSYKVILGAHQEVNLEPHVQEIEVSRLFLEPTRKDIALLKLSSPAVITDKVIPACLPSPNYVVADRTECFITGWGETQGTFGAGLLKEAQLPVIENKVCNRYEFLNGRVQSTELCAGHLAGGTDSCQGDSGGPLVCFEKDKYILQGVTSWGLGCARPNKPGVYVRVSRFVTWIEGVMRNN
T2 sequence (P00747 97-580 partner limits assumed): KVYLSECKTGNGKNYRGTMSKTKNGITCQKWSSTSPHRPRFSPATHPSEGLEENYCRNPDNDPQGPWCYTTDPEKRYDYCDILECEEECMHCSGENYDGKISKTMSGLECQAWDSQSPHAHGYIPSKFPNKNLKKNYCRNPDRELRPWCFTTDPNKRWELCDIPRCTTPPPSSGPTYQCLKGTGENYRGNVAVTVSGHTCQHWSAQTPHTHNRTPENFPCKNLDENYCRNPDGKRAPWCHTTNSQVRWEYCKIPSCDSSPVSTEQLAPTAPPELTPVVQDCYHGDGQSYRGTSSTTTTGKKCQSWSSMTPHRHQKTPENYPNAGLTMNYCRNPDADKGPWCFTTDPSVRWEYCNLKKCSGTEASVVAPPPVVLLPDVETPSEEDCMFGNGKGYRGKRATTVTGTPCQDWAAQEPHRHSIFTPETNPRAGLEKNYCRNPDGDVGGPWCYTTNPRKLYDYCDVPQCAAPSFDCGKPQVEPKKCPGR
Procedure: The plasmin inhibition of the inventive substances is determined using a biochemical test system which utilizes the reaction of a peptidic plasmin substrate to determine the enzymatic activity of human plasmin. Here, plasmin cleaves from the peptic plasmin substrate the C-terminal aminomethylcoumarin (AMC), the fluorescence of which is measured. The determinations are carried out in microtitre plates.
Test substances are dissolved in dimethyl sulphoxide and serially diluted in dimethyl sulphoxide (3000 μM to 0.0078 μM; resulting final concentrations in the test: 50 μM to 0.00013 μM). In each case 1 μl of the diluted substance solutions are placed into the wells of white microtitre plates from Greiner (384 wells). Subsequently, the following are added successively: 20 μl of assay buffer (50 mmol/Tris buffer pH 7.4; 100 mmol/l sodium chloride; 5 mmol/calcium chloride; 0.1% bovine serum albumin) and 20 μl of plasmin from Kordia (0.3 μg/ml in assay buffer) are then added successively. After 15 min of incubation, the enzyme reaction is started by addition of 20 μl of the plasmin substrate MeOSuc-Ala-Phe-Lys-AMC dissolved in assay buffer (150 μM in assay buffer) from Bachem, the mixture is incubated at room temperature (22° C.) for 30 min and fluorescence is then measured (excitation: 360 nm, emission: 460 nm). The measured emissions of the test batches with test substance are compared to those of control batches without test substance (only dimethyl sulphoxide instead of test substance in dimethyl sulphoxide), and the IC50 values are calculated from the concentration/activity relationships.

human and animal plasma = assay: Determination of anticoagulatory activity: activated partial thromboplastin time (aPTT) in plasma; conditions: concentration of test substance which brings about a 1.5-fold extension of the aPTT; plasma species not given
Procedure, shortened: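 Citrated plasma (1:9, 0.11 M citrate; 4000 g, 15 min) from human or animal blood incubated with test compound and cephalin/kaolin PTT reagent for 3 min at 37° C.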

SMILES | pIC50 (human factor XIa) | pIC50 (human plasmin) | aPTT (human and animal plasma) [µmol/L]
Cc1cc(C(=O)NC(C)C)ccc1-c1ccc(C[C@H](NC(=O)[C@H]2CC[C@H](CN)CC2)C(=O)Nc2cc(C(=O)O)c3cn[nH]c3c2)cc1 [Example 161, 6-({(2S)-2-({[trans-4-(Aminomethyl)cyclohexyl]carbonyl}amino)-3-[4′-(isopropylcarbamoyl)-2′-methylbiphenyl-4-yl]propanoyl}amino)-1H-indazole-4-carboxylic acid hydrochloride] | 8.21 | 8.17 | –
CC(NC(=O)c1ccc(-c2ccc(CC(NC(=O)[C@H]3CC[C@H](CN)CC3)C(=O)Nc3ccc(-c4nnn[nH]4)cc3)cc2)c(Cl)c1)C1CC1 (stereo partly shown) [Example 136, hydrochloride] | 8.92 | 8.82 | 0.29
Cc1cc(C(=O)NC(C)C)ccc1-c1ccc(C[C@H](NC(=O)[C@H]2CC[C@H](CN)CC2)C(=O)Nc2ccc(-c3nn[nH]n3)cc2)cc1 [Example 7, 4′-[(2S)-2-({[trans-4-(Aminomethyl)cyclohexyl]carbonyl}amino)-3-oxo-3-{[4-(2H-tetrazol-5-yl)phenyl]amino}propyl]-N-isopropyl-2-methylbiphenyl-4-carboxamide hydrochloride] | 8.77 | 8.72 | –
Cc1cc(C(=O)NC2CCC2)ccc1-c1ccc(C[C@H](NC(=O)[C@H]2CC[C@H](CN)CC2)C(=O)Nc2cc(Cl)c3oc(=O)[nH]c3c2)cc1 [Example 102, 4′-{(2S)-2-({[trans-4-(Aminomethyl)cyclohexyl]carbonyl}amino)-3-[(7-chloro-2-oxo-2,3-dihydro-1,3-benzoxazol-5-yl)amino]-3-oxopropyl}-N-cyclobutyl-2-methylbiphenyl-4-carboxamide hydrochloride] | 8.10 | 9.13 | –
CNC(=O)C(F)(F)C(F)(F)c1nnc(-c2ccc(NC(=O)[C@H](Cc3ccc(-c4ccc(C(=O)NC(C)C)cc4C)cc3)NC(=O)[C@H]3CC[C@H](CN)CC3)cc2)[nH]1 [Example 165, 4′-({(2S)-2-({[trans-4-(Aminomethyl)cyclohexyl]carbonyl}amino)-3-oxo-3-[(4-{5-[1,1,2,2-tetrafluoro-3-(methylamino)-3-oxopropyl]-4H-1,2,4-triazol-3-yl}phenyl)amino]propyl}-N-isopropyl-2-methylbiphenyl-4-carboxamide hydrochloride] | 8.85 | 8.72 | –
Cc1cc(C(=O)NC2CCC2)ccc1-c1ccc(C[C@H](NC(=O)[C@H]2CC[C@H](CN)CC2)C(=O)Nc2ccc3cc(C(=O)O)[nH]c3c2)cc1 [Example 160, 6-({(2S)-2-({[trans-4-(Aminomethyl)cyclohexyl]carbonyl}amino)-3-[4′-(cyclobutylcarbamoyl)-2′-methylbiphenyl-4-yl]propanoyl}amino)-1H-indole-2-carboxylic acid hydrochloride] | 8.28 | 8.89 | –
Cc1cc(C(=O)N2CCCC2)ccc1-c1ccc(C[C@H](NC(=O)[C@H]2CC[C@H](CN)CC2)C(=O)Nc2ccc(-c3nn[nH]n3)cc2)cc1 [Example 20, trans-4-(Aminomethyl)-N-[(2S)-3-[2′-methyl-4′-(pyrrolidin-1-ylcarbonyl)biphenyl-4-yl]-1-oxo-1-{[4-(2H-tetrazol-5-yl)phenyl]amino}propan-2-yl]cyclohexanecarboxamide] | 8.74 | 8.24 | –
Cc1cc(C(=O)NC(C)C)ccc1-c1ccc(CC(NC(=O)[C@H]2CC[C@H](CN)CC2)C(=O)Nc2ccc3cn[nH]c3c2)cc1 (mixture of isomers) [Example 21, 4′-[(2R,S)-2-({[trans-4-(Aminomethyl)cyclohexyl]carbonyl}amino)-3-(1H-indazol-6-ylamino)-3-oxopropyl]-N-isopropyl-2-methylbiphenyl-4-carboxamide hydrochloride (enantiomer mixture)] | 8.74 | 8.96 | –
Cc1cc(C(=O)NC(C)C)ccc1-c1ccc(C[C@H](NC(=O)[C@H]2CC[C@H](CN)CC2)C(=O)Nc2cc(Cl)c3oc(=O)[nH]c3c2)cc1 [Example 156, 4′-{(2S)-2-({[trans-4-(Aminomethyl)cyclohexyl]carbonyl}amino)-3-[(7-chloro-2-oxo-2,3-dihydro-1,3-benzoxazol-5-yl)amino]-3-oxopropyl}-N-isopropyl-2-methylbiphenyl-4-carboxamide hydrochloride] | 8.15 | 9.24 | –
Cc1cc(C(=O)NC(C)C)ccc1-c1ccc(C[C@H](NC(=O)C2CCC(CN)CC2)C(=O)Nc2ccc3cn[nH]c3c2)cc1 (single isomer, unassigned; enantiomer 2) [Example 170] | 8.25 | 8.89 | –
Cc1cc(C(=O)N[C@@H]2CCNC2=O)ccc1-c1ccc(C[C@H](NC(=O)[C@H]2CC[C@H](CN)CC2)C(=O)Nc2ccc3cn[nH]c3c2)cc1 [Example 145, 4′-[(2S)-2-({[trans-4-(Aminomethyl)cyclohexyl]carbonyl}amino)-3-(1H-indazol-6-ylamino)-3-oxopropyl]-2-methyl-N-[(3R)-2-oxopyrrolidin-3-yl]biphenyl-4-carboxamide hydrochloride] | 8.49 | – | 0.07
Cc1nnc(-c2ccc(NC(=O)[C@H](Cc3ccc(-c4ccc(C(=O)NC5CCNCC5)cc4C)cc3)NC(=O)[C@H]3CC[C@H](CN)CC3)cc2)[nH]1 [Example 56, 4′-[(2S)-2-({[trans-4-(Aminomethyl)cyclohexyl]carbonyl}amino)-3-{[4-(3-methyl-4H-1,2,4-triazol-5-yl)phenyl]amino}-3-oxopropyl]-2-methyl-N-(piperidin-4-yl)biphenyl-4-carboxamide hydrochloride] | 7.32 | – | 0.44
CCN(C)C1CCC(NC(=O)c2ccc(-c3ccc(C[C@H](NC(=O)[C@H]4CC[C@H](CN)CC4)C(=O)Nc4ccc(-c5nnn[nH]5)cc4)cc3)c(C)c2)CC1 (stereo partly drawn) [Example 150, 4′-[(2S)-2-({[trans-4-(Aminomethyl)cyclohexyl]carbonyl}amino)-3-oxo-3-{[4-(1H-tetrazol-5-yl)phenyl]amino}propyl]-N-{4-[ethyl(methyl)amino]cyclohexyl}-2-methylbiphenyl-4-carboxamide hydrochloride] | 8.60 | – | 0.07
Cc1cc(C(=O)N[C@H]2CCCNC2=O)ccc1-c1ccc(C[C@H](NC(=O)[C@H]2CC[C@H](CN)CC2)C(=O)Nc2ccc3c(Cl)n[nH]c3c2)cc1 [Example 93, 4′-{(2S)-2-({[trans-4-(Aminomethyl)cyclohexyl]carbonyl}amino)-3-[(3-chloro-1H-indazol-6-yl)amino]-3-oxopropyl}-2-methyl-N-[(3S)-2-oxopiperidin-3-yl]biphenyl-4-carboxamide hydrochloride] | 8.62 | – | 0.21
Cc1cc(C(=O)NC2CCC(N(C)C)CC2)ccc1-c1ccc(CC(NC(=O)[C@H]2CC[C@H](CN)CC2)C(=O)Nc2ccc(-c3nc(C(F)(F)C(F)(F)C(=O)O)n[nH]3)cc2)cc1 (stereo partly drawn) [Example 101, 3-[5-(4-{[(2S)-2-({[trans-4-(Aminomethyl)cyclohexyl]carbonyl}amino)-3-(4′-{[4-(dimethyl-amino)cyclohexyl]carbamoyl}-2′-methylbiphenyl-4-yl)propanoyl]amino}phenyl)-1H-1,2,4-triazol-3-yl]-2,2,3,3-tetrafluoropropanoic acid hydrochloride] | 8.96 | – | 0.07
Cc1cc(C(=O)N[C@@H]2CCNC2)ccc1-c1ccc(C[C@H](NC(=O)[C@H]2CC[C@H](CN)CC2)C(=O)Nc2ccc(-c3nn[nH]n3)cc2)cc1 [Example 8, 4′-[(2S)-2-({[trans-4-(Aminomethyl)cyclohexyl]carbonyl}amino)-3-oxo-3-{[4-(2H-tetrazol-5-yl)phenyl]amino}propyl]-2-methyl-N-[(3R)-pyrrolidin-3-yl]biphenyl-4-carboxamide hydrochloride] | 8.60 | – | 0.09
Cc1cc(C(=O)NC(C)C)ccc1-c1ccc(C[C@@H](NC(=O)C2CCC(CN)CC2)C(=O)Nc2ccc3cn[nH]c3c2)cc1 (single isomer, unassigned; enantiomer 1) [Example 169] | 5.55 | 6.57 | –
Cc1cc(C(N)=O)ccc1-c1ccc(C[C@H](NC(=O)[C@H]2CC[C@H](CN)CC2)C(=O)Nc2ccc(-c3nn[nH]n3)cc2)cc1 [Example 14, 4′-[(2S)-2-({[trans-4-(Aminomethyl)cyclohexyl]carbonyl}amino)-3-oxo-3-{[4-(2H-tetrazol-5-yl)phenyl]amino}propyl]-2-methylbiphenyl-4-carboxamide hydrochloride] | 8.85 | – | 0.49
